Target: T1, G1-ATPase (dimeric F1-like ATPase, twin motor; type 2 ATPase) ([Mycoplasma] mobile, UniProt Q6KIC3+Q6KIC4)
T1 construct: gene atpA; native twin motor isolated from M. mobile cells; two alpha3beta3gamma units with GliD, GliE and PGK; PGK CTD only partly modelled; strain mutation lies in gli521, outside the complex; with F1-like ATPase gamma subunit (G1-gamma); GliD (bridge subunit of G1-ATPase); GliE (G1-ATPase subunit, 112 amino acids); Phosphoglycerate kinase
Experiment: cryo-EM structure of the complex ([…] Å; local […] Å)
Type: binding
Details: Mg2+, endogenous nucleotide, isolated without added nucleotide, PBS pH 7.3, 1 mM MgCl2

## Nc1ncnc2c1ncn2[C@@H]1O[C@H](COP(=O)(O)OP(=O)(O)O)[C@@H](O)[C@H]1O [Mg-ADP]
Catalytic site of alphaHO-betaHO, together with Pi
  cryo-EM structure of the complex (3.2 Å; local 3.1 Å): αCβC and αHOβHO contained Mg-ATP and Mg-ADP + Pi, respectively

## Nc1ncnc2c1ncn2[C@@H]1O[C@H](COP(=O)(O)OP(=O)(O)OP(=O)(O)O)[C@@H](O)[C@H]1O [Mg-ATP]
Catalytic site of alphaC-betaC and the three noncatalytic beta-alpha interfaces
  cryo-EM structure of the complex (3.2 Å; local 3.1 Å): Mg-ATP was observed at the remaining three interfaces, hereafter referred to as the β-α interfaces

Source: PMC11864180, “Dimeric assembly of F1-like ATPase for the gliding motility of Mycoplasma” (Science Advances, 2025)
